The values below come from article PMC5831858, “Pharmacological characterisation of CR6086, a potent prostaglandin E2 receptor 4 antagonist, as a new potential disease-modifying anti-rheumatic drug” (Arthritis Research & Therapy, 2018).

Marks after values point to notes of the source that are not given here.

Assay [1] concerns arthritic mice (collagen-induced arthritis model). The experiment in a line: Serum anti-bCII IgG antibodies (ELISA), CIA mice third study. The assay is classed as in vivo, mouse. As to conditions: end of treatment. As for the experimental part:
In a third study, mice were randomised into the following treatment groups: naive, vehicle, 30 mg/kg CR6086, 1 or 3 mg/kg MTX, with the latter administered alone or in combination with 30 mg/kg CR6086. CR6086 was administered orally once daily. MTX was administered intraperitoneally three times per week (every third day). Mice were treated with test drugs for 16 days.
At the end of the treatment period, animals were killed, and their paws were explanted and processed for histology. In the third study, the serum concentrations of immunoglobulin G (IgG) antibodies against bCII were measured by ELISA (catalogue number 2032; Chondrex, Redmond, WA, USA).
On the technique in general: ELISA stands for enzyme-linked immunosorbent assay.

Assay [2] has the same test system. The experiment in a line: CIA in mice, third study (CR6086, MTX, combination): clinical score, oedema, histology. The assay is classed as in vivo, mouse. To be noted: for CLINICAL SCORE (interquartile range): median (IQR).
The test system of assay [3] is arthritic rats (collagen-induced arthritis model). The experiment in a line: Collagen-induced arthritis in rats: clinical score, oedema, histology. In kind it is in vivo, rat. As to conditions: 15 mg/kg once daily. The procedure: (§1) Male Lewis rats were immunised by intradermal injection at the base of the tail with an emulsion containing 150 μg of bovine collagen type II (bCII) in complete Freund’s adjuvant (CFA) or received an injection with incomplete Freund’s adjuvant (sham group). Three weeks after the first immunisation, animals were boosted with the same procedure. Three days after booster injection, arthritis had developed in all animals but the sham group. Oedema was assessed via plethysmometer (Ugo Basile, Varese, Italy), and the animals were then randomised to treatment groups. Oedema measurement was performed again after 7 and 14 days of treatment. Animals were blindly scored by two different investigators for clinical signs of arthritis (redness, swelling, pain of hind limb joints) as follows: 0 = normal; 1 = mild but definite redness and swelling of the ankle or wrist or individual digits, regardless of the number of affected digits; 2 = moderate redness and swelling of ankle or wrist; 3 = severe redness and swelling of the entire paw including digits; and 4 = maximally inflamed limb with involvement of multiple joints. The mean of the scores assigned by the investigators was calculated.
Three different experiments in rat CIA are reported: a dose-response study, as well as two comparative studies vs the COX-2 inhibitor rofecoxib and the Janus kinase (JAK) inhibitor tofacitinib, respectively.
Briefly, the paws were fixed in 10% neutral buffered formalin (Bio-Optica, Milan, Italy) and subsequently decalcified in EDTA for 4 weeks. Samples were dehydrated in an ethanol series and embedded in paraffin. At least three non-consecutive sections for each paw were blindly scored at the level of the tarsus, metatarsus and calcaneus for the following histological features: synovial oedema, pannus, synovial inflammatory cell infiltrate, cartilage damage, osteolysis and woven bone. Based on these histological features, a synovial score (synovial oedema, plus synovial inflammatory cell infiltrate, plus pannus), a bone score (woven bone plus osteolysis) and a total score were calculated. Two independent pathologists performed histopathology on blinded slides. The data of right and left hind limbs were summed for each rat.

For assay [4] the test system is unchanged. The experiment in a line: Mechanical hyperalgesia (PAM) in CIA rats. The assay is classed as in vivo, rat. As to conditions: 15 mg/kg, mean ± SEM. The procedure:
as §1
In the comparative experiment vs rofecoxib, mechanical hyperalgesia was assessed at the end of treatment by using a digital pressure application measurement (PAM) device (Ugo Basile). Increasing pressure was applied to the lateral side of the knee until the animal attempted to escape or vocalised. The force required to elicit this response was measured in grams (gram-force). An optimal stimulus increase rate of 100 g/second was used, and mechanical thresholds were reached after approximately 10 seconds. This increase was visualised with a rate meter on the built-in display, so the pressure applied was visually controlled. At the end of the experiment, animals were killed, and their hind paws were explanted and processed for histology.

Assay [5] has as its system arthritic mice (collagen-induced arthritis model). The assay is described as follows: FACS analysis of cell populations in the joint, CIA mice. To be noted: CR6086 60 mg/kg, naproxen 60 mg/kg, etanercept 10 mg/kg, mean ± SEM. In kind it is in vivo, mouse. As for the experimental part:
(§2) In a first study, mice were randomised into the following treatment groups: vehicle, 30 mg/kg CR6086, 60 mg/kg CR6086, 60 mg/kg naproxen and 10 mg/kg etanercept. Animals received the test drugs for 10 days. CR6086 and naproxen were administered orally once daily, whereas etanercept was administered intraperitoneally every other day. Animals treated with vehicle, 60 mg/kg CR6086, naproxen and etanercept were additionally analysed for the proportion of populations of Th17 cells, Th1 cells, regulatory T cells, B cells, macrophages, neutrophils and dendritic cells by fluorescence-activated cell sorting (FACS) after collection of blood, draining lymph nodes and joints.
A general note: In flow cytometry, cells or beads pass a laser one at a time.

For assay [6] the test system is unchanged. The experiment in a line: CIA in mice, first study: clinical score and paw swelling. In kind it is in vivo, mouse. To be noted: 10 days; CR6086 30 and 60 mg/kg, naproxen 60 mg/kg oral once daily; etanercept 10 mg/kg i.p. every other day. As for the experimental part: Male DBA/1 mice were immunised by intradermal injection at the base of the tail with an emulsion of 200 μg of bCII in CFA containing 3 mg/ml Mycobacterium tuberculosis. Non-immunised mice served as the negative control of disease. Animals were monitored by visual inspection for appearance of peripheral oedema. […] Upon onset, animals were recruited and randomised. Recruitment was given a cut-off at day 40. Upon recruitment, arthritis clinical score was assigned, and oedema was measured via caliper.
as §2
Oedema measurement was performed every day before treatment, and all animals were blindly scored for clinical signs of arthritis as follows: 0 = normal; 1 = slight swelling and/or erythema; 2 = pronounced oedematous swelling; and 3 = ankyloses and severe swelling. A score of 0.5 was given to swollen toe/toes or when inflammation was localised to one part of the foot. Each limb was measured separately, with a final score based on the sum of the scores from all four paws.

Consider `CN(Cc1cnc2nc(N)nc(N)c2n1)c1ccc(C(=O)N[C@@H](CCC(=O)O)C(=O)O)cc1` [MTX, methotrexate], for which the figures for the “Anti-collagen II” value in assay [1] (1 mg/kg MTX) and in assay [1] (3 mg/kg MTX) were 483.83 ± 102.82 µg/mL and 242.46 ± 79.35 µg/mL, respectively. Moreover, the “effect on joint histopathology” value in assay [2] (16 days, 30 mg/kg CR6086, 3 mg/kg MTX, alone or combined) was “significantly improved all histological features of arthritis”. For the same compound, the “CLINICAL SCORE (interquartile range)” value in assay [2] (DAY 0, 1 mg/kg MTX) is reported as 3.0 (2.4 – 3.3) *; in assay [2] (DAY 0, 3 mg/kg MTX), 2.0 (2.0 – 2.0) *; in assay [2] (DAY 1, 1 mg/kg MTX), 2.8 (2.0 – 3.0); in assay [2] (DAY 1, 3 mg/kg MTX) it was 2.3 (2.0 – 3.0); in assay [2] (DAY 2, 1 mg/kg MTX), 3.0 (3.0 – 4.0); in assay [2] (DAY 2, 3 mg/kg MTX), 3.0 (2.1 – 3.8). In addition, the “CLINICAL SCORE (interquartile range)” value in assay [2] (DAY 3, 1 mg/kg MTX) is reported as 4.0 (3.0 – 4.8); in assay [2] (DAY 3, 3 mg/kg MTX), 3.0 (2.3 – 6.0); in assay [2] (DAY 4, 1 mg/kg MTX) it was 3.5 (3.0 – 5.5); in assay [2] (DAY 4, 3 mg/kg MTX) it was 4.0 (2.0 – 5.5); in assay [2] (DAY 5, 1 mg/kg MTX) it was 5.0 (3.4 – 6.3); in assay [2] (DAY 5, 3 mg/kg MTX), 3.5 (2.4 – 4.8). Besides, the “CLINICAL SCORE (interquartile range)” value was 4.8 (3.3 – 8.1) in assay [2] (DAY 6, 1 mg/kg MTX); 4.0 (2.0 – 5.5) in assay [2] (DAY 6, 3 mg/kg MTX); 4.5 (2.8 – 7.5) in assay [2] (DAY 7, 1 mg/kg MTX); 4.5 (2.6 – 6.0) in assay [2] (DAY 7, 3 mg/kg MTX); 5.5 (3.8 – 7.6) in assay [2] (DAY 8, 1 mg/kg MTX); 4.3 (2.4 – 6.4) in assay [2] (DAY 8, 3 mg/kg MTX). The “CLINICAL SCORE (interquartile range)” value is 5.0 (3.3 – 7.0) in assay [2] (DAY 9, 1 mg/kg MTX); 4.5 (3.0 – 5.0) in assay [2] (DAY 9, 3 mg/kg MTX); 6.5 (3.0 – 7.3) in assay [2] (DAY 10, 1 mg/kg MTX); 5.0 (2.5 – 5.5) in assay [2] (DAY 10, 3 mg/kg MTX); 7.3 (4.4 – 7.5) in assay [2] (DAY 11, 1 mg/kg MTX); 5.0 (2.5 – 6.0) in assay [2] (DAY 11, 3 mg/kg MTX). For the same compound, the “CLINICAL SCORE (interquartile range)” value in assay [2] (DAY 12, 1 mg/kg MTX) is 6.8 (5.3 – 7.5); in assay [2] (DAY 12, 3 mg/kg MTX), 5.5 (2.0 – 7.5); in assay [2] (DAY 13, 1 mg/kg MTX) it was 6.3 (4.5 – 7.0); in assay [2] (DAY 13, 3 mg/kg MTX) it was 6.0 (2.0 – 7.0); in assay [2] (DAY 14, 1 mg/kg MTX), 7.3 (5.0 – 7.6); in assay [2] (DAY 14, 3 mg/kg MTX), 4.5 (2.0 – 6.0). For the same compound, the “CLINICAL SCORE (interquartile range)” value in assay [2] (DAY 15, 1 mg/kg MTX) is reported as 6.5 (5.0 – 7.5); in assay [2] (DAY 15, 3 mg/kg MTX), 4.5 (3.1 – 7.0); in assay [2] (DAY 16, 1 mg/kg MTX), 6.5 (5.5 – 8.3); in assay [2] (DAY 16, 3 mg/kg MTX), 4.5 (2.3 – 5.4).
Take `CS(=O)(=O)c1ccc(C2=C(c3ccccc3)C(=O)OC2)cc1` [rofecoxib, reference compound]: the “effect on clinical score” value in assay [3] is “small effect”. The “effect on structural and inflammatory parameters (oedema, histology)” value in assay [3] (14 days) was “improved to a slight but significant extent the inflammatory parameters (not the structural ones)”. For the same compound, the “Mechanical hyperalgesia, Day 0” value in assay [4] (Day 0) was 943.70 ± 73.42^a gram-force. Moreover, the “Mechanical hyperalgesia, Day 7” value in assay [4] (Day 7) is 673.18 ± 53.76^b gram-force. The “Mechanical hyperalgesia, Day 14” value in assay [4] (Day 14) is 799.68 ± 61.15^b,c gram-force.
In the case of etanercept, in assay [5], the “B cells, Percentage of total cells” value is 5.74 ± 0.68%; the “Dendritic cells, Percentage of total cells” value is listed as 1.51 ± 0.18%; the “Macrophages, Percentage of total cells” value was determined as 12.31 ± 5.19%; the “Neutrophils, Percentage of total cells” value worked out at 10.53 ± 2.81%. In assay [5], the “Th1, Percentage of total cells” value is recorded as 0.20 ± 0.05^a %; the “Th17, Percentage of total cells” value came to 0.16 ± 0.08%; the “Treg, Percentage of total cells” value turned out to be 0.39 ± 0.10%. In assay [6], the “effect on disease parameters (visual clinical score, paw swelling) vs vehicle” value was “significantly improved”.
